Measurements published in patent US4001218A, “Penicillins” (Bayer Aktiengesellschaft, priority 1972, dated 1977).

Assays:
E. coli A 261 = assay: MIC, test tube series dilution test, E. coli A 261; assay type: cell-based; conditions: 24 hours, 37°C
Staph. aureus 133 = assay type: cell-based, Staphylococcus aureus; conditions: for MIC: Staph. aureus 133, 24 hours, 37°C
E. coli 14 = assay type: cell-based; conditions: for MIC: E. coli 14, 24 hours, 37°C
Psdm. aerug. F 41 = assay: MIC, test tube series dilution test, Psdm. aerug. F 41; assay type: cell-based, Pseudomonas aeruginosa; conditions: 24 hours' incubation
Klebsiella 63 = assay: MIC, test tube series dilution test, Klebsiella 63; assay type: cell-based; conditions: 24 hours' incubation
Proteus vulg. 1017 = assay type: cell-based, Proteus vulgaris; conditions: for MIC: Proteus 1017, 24 hours, 37°C
Proteus morg. 932 = assay: MIC, test tube series dilution test, Proteus morg. 932; assay type: cell-based; conditions: 24 hours, 37°C

SMILES	MIC (E. coli A 261) [U/ml]	MIC (Staph. aureus 133) [U/ml]	other results
CC1(C)S[C@@H]2[C@H](NC(=O)[C@H](NC(=O)CNC(=O)c3ccc(N=[N+]=[N-])cc3)c3ccccc3)C(=O)N2[C@H]1C(=O)O [Example 68]	> 256	< 1	–
CC1(C)S[C@@H]2[C@H](NC(=O)[C@H](NC(=O)CNC(=O)c3ccc([N+](=O)[O-])cc3)c3ccccc3)C(=O)N2[C@H]1C(=O)O [Example 69]	> 256	< 1	–
Cc1cc(C(=O)N[C@@H](C(=O)N[C@@H]2C(=O)N3[C@@H]2SC(C)(C)[C@@H]3C(=O)O)c2ccccc2)ccc1N [Example 32, sodium D(-)-α-(4-amino-3-methyl-benzoylamino)-benzyl-penicillin]	> 256	< 1	–
CC1(C)S[C@@H]2[C@H](NC(=O)[C@H](NC(=O)c3ccc(NC(=O)c4ccc([N+](=O)[O-])cc4)cc3[N+](=O)[O-])c3ccccc3)C(=O)N2[C@H]1C(=O)O [Example 27, sodium D(-)-α-[4-(4-nitrobenzoylamino)-2-nitrobenzoylamino]-benzylpenicillin]	> 256	< 1	–
CC1(C)S[C@@H]2[C@H](NC(=O)[C@H](NC(=O)c3ccc(NC(=O)c4ccc(S(C)(=O)=O)cc4)cc3)c3ccccc3)C(=O)N2[C@H]1C(=O)O [Example 80, sodium D(-)-α-[4-(p-methylsulphonylbenzoylamino)-benzoylamino]-benzylpenicillin]	–	–	Activity against E. coli 14 (minimum inhibitory concentration) (E. coli 14; 24 hours' incubation): 4-8 U/ml; Activity against Psdm. aerug. F 41 (minimum inhibitory concentration) (Psdm. aerug. F 41): 32-64 U/ml; Activity against Klebs. 63 (minimum inhibitory concentration) (Klebsiella 63): 32-64 U/ml; Activity against Staph. aureus 133 (minimum inhibitory concentration) (Staph. aureus 133; 24 hours' incubation): < 1 U/ml; Activity against Proteus vulg. 1017 (minimum inhibitory concentration) (Proteus vulg. 1017; 24 hours' incubation): 128-256 U/ml
CC1(C)S[C@@H]2[C@H](NC(=O)[C@H](NC(=O)c3ccc(NC(=O)c4cc([N+](=O)[O-])cc([N+](=O)[O-])c4)cc3)c3ccccc3)C(=O)N2[C@H]1C(=O)O [Example 19]	> 256	< 1	MIC (E. coli 14): < 1 U/ml; MIC (Proteus vulg. 1017): ~ 16 U/ml
CC1(C)S[C@@H]2[C@H](NC(=O)[C@H](NC(=O)CNC(=O)c3ccc(NC(=O)C4=CCCCC4)cc3)c3ccccc3)C(=O)N2[C@H]1C(=O)O [Example 67]	–	< 1	MIC (Proteus vulg. 1017): > 256 U/ml
CC1(C)S[C@@H]2[C@H](NC(=O)[C@H](NC(=O)c3ccc(NC(=O)C4CC4)c([N+](=O)[O-])c3)c3ccccc3)C(=O)N2[C@H]1C(=O)O [Example 4, sodium D(-)-α-(4-cyclopropanecarbonylamino-3-nitro-benzoylamino)-benzylpenicillin]	> 256	< 1	MIC (Proteus morg. 932): > 256 U/ml
CC1(C)S[C@@H]2[C@H](NC(=O)[C@H](NC(=O)c3cccc(NC(=O)C4CC4)c3)c3ccccc3)C(=O)N2[C@H]1C(=O)O [Example 51]	> 256	< 1	MIC (E. coli 14): ~ 16 U/ml; MIC (Proteus morg. 932): > 256 U/ml
Cc1cc(C(=O)N[C@@H](C(=O)N[C@@H]2C(=O)N3[C@@H]2SC(C)(C)[C@@H]3C(=O)O)c2ccccc2)ccc1[N+](=O)[O-] [Example 31, sodium D(-)-α-(4-nitro-3-methylbenzoylamino)-benzylpenicillin]	> 256	< 1	–
CC1(C)S[C@@H]2[C@H](NC(=O)[C@H](NC(=O)C=Cc3ccc(NC(=O)C4CCC4)cc3)c3ccccc3)C(=O)N2[C@H]1C(=O)O [Example 57]	> 256	< 1	MIC (E. coli 14): ~ 1 U/ml
CC1(C)S[C@@H]2[C@H](NC(=O)[C@H](NC(=O)C=Cc3ccc(NC=O)cc3)c3ccccc3)C(=O)N2[C@H]1C(=O)O [Example 55]	–	< 1	MIC (Proteus vulg. 1017): > 256 U/ml
CC1(C)S[C@@H]2[C@H](NC(=O)[C@H](NC(=O)c3cc(NC(=O)C4CCC4)cc(NC(=O)C4CCC4)c3)c3ccccc3)C(=O)N2[C@H]1C(=O)O [Example 73]	> 256	< 1	–
CC1(C)S[C@@H]2[C@H](NC(=O)[C@H](NC(=O)c3ccc(NC(=O)c4ccc5c(c4)OCO5)cc3)c3ccccc3)C(=O)N2[C@H]1C(=O)O [Example 24]	> 256	< 1	–
CC1(C)S[C@@H]2[C@H](NC(=O)[C@H](NC(=O)CNC(=O)c3ccc(NC(=O)C4CCC4)cc3)c3ccccc3)C(=O)N2[C@H]1C(=O)O [Example 65]	> 256	< 1	MIC (Proteus morg. 932): > 256 U/ml
CC1(C)S[C@@H]2[C@H](NC(=O)[C@H](NC(=O)CSc3ccc(NC(=O)CC4C=CCC4)cc3)c3ccccc3)C(=O)N2[C@H]1C(=O)O (some centres unmarked) [Example 62]	> 256	–	–
